Reference: patent publication US10981894B2, “Melanocortin subtype-2 receptor (MC2R) antagonists and uses thereof” (Crinetics Pharmaceuticals, Inc., priority 2018, dated 2021)
pKi: −log10 of the molar value.

target: hMC2 receptor (Homo sapiens, UniProt Q01718); assay: hMC2 membrane binding assay ([125I]ACTH (1-39) Tyr23, SPA); parameters: scale not given here; conditions: crude hMC2R membranes from CRE-bla-CHO-K1 cells expressing hMC2 receptor and hMRAP; [125I]ACTH (1-39) Tyr23 0.2 nM; 1.5 hours at room temperature; read-out: MC2R binding potency
How it was run: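 Ki comes from non-linear regression of SPA scintillation counts. Displacement of 0.2 nM [125I]ACTH(1-39) Tyr23 by compound dose series (usually 0–10,000 nM final) ran 1.5 h at room temperature. Membranes came from CHO-K1 CRE-bla cells stably expressing hMC2R plus hMRAP, bead-coupled in pH 7.4 buffer with 0.2% BSA.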

hMC2 receptor, sequence (Q01718 whole entry): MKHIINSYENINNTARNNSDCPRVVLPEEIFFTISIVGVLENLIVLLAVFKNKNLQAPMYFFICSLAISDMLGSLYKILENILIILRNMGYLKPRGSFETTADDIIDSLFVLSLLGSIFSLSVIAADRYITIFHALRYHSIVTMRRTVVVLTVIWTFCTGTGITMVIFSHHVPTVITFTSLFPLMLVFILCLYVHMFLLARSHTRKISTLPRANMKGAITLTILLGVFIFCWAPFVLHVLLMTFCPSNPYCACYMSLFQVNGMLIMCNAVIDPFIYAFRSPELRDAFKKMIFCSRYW
hMC2 receptor, sequence (Q8TCY5 whole entry partner): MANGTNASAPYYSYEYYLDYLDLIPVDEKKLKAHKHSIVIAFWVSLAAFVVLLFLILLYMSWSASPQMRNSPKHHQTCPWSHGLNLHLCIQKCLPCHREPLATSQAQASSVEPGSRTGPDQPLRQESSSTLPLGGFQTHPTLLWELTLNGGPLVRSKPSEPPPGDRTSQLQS

pKi, > 8.00:
CCOc1ncccc1-c1ccc(N2CCN(C(=O)c3ccc(OC)cc3C(F)(F)F)C[C@H]2CC)c(C(=O)NCCN(C)C)n1 [Compound 1-169, N-[2-(dimethylamino)ethyl]-2′-ethoxy-5-[(2R)-2-ethyl-4-[4-methoxy-2-(trifluoromethyl)benzoyl]piperazin-1-yl]-[2,3′-bipyridine]-6-carboxamide]
CCOc1ncccc1-c1ccc(N2CCN(C(=O)c3ccc(F)cc3C(F)F)C[C@H]2CC)c(C(=O)N[C@@H]2CCN(C)C2)n1 [Compound 1-279, 5-[(2R)-4-[2-(difluoromethyl)-4-fluorobenzoyl]-2-ethylpiperazin-1-yl]-2′-ethoxy-N-[(3R)-1-methylpyrrolidin-3-yl]-[2,3′-bipyridine]-6-carboxamide]
CCOc1ncccc1-c1ccc(N2CCN(C(=O)O[C@@H](C(C)(C)C)C(F)(F)F)C[C@H]2CC)c(C(=O)NCC2CN(C)C2)n1 (single isomer, unassigned) [Compound 1-396, (2S)-1,1,1-trifluoro-3,3-dimethylbutan-2-yl (3R)-4-(2′-ethoxy-6-{[(1-methylazetidin-3-yl)methyl]carbamoyl}-[2,3′-bipyridin]-5-yl)-3-ethylpiperazine-1-carboxylate; or (2R)-1,1,1-trifluoro-3,3-dimethylbutan-2-yl (3R)-4-(2′-ethoxy-6-{[(1-methylazetidin-3-yl)methyl]carbamoyl}-[2,3′-bipyridin]-5-yl)-3-ethylpiperazine-1-carboxylate]
CCOc1ccccc1-c1ccc(N2CCN(C(=O)c3ccc(C)cc3-c3ccc(CN)cc3)C[C@H]2CC)c(C(=O)NCCN)c1 [Compound 1-18, (R)-N-(2-aminoethyl)-4-(4-(4′-(aminomethyl)-5-methyl-[1,1′-biphenyl]-2-carbonyl)-2-ethylpiperazin-1-yl)-2′-ethoxy-[1,1′-biphenyl]-3-carboxamide]
CCOc1ncccc1-c1ccc(N2CCN(C(=O)c3ccc(Cl)cc3C#N)C[C@H]2CC)c(C(=O)N[C@@H]2CCNC2)c1 [Compound 1-142, 2-[(2R)-4-(4-chloro-2-cyanobenzoyl)-2-ethylpiperazin-1-yl]-5-(2-ethoxypyridin-3-yl)-N-[(3R)-pyrrolidin-3-yl]benzamide]
CCOc1ncccc1-c1ccc(N2CCN(C(=O)c3ccc(F)cc3C(F)(F)F)C[C@H]2CC)c(C(=O)N[C@@H]2CCNC2)n1 [Compound 1-266, 2′-ethoxy-5-[(2R)-2-ethyl-4-[4-fluoro-2-(trifluoromethyl)benzoyl]piperazin-1-yl]-N-[(3R)-pyrrolidin-3-yl]-[2,3′-bipyridine]-6-carboxamide]
CCOc1ncccc1-c1ccc(N2CCN(C(=O)c3ccc(Cl)cc3C(F)(F)F)C[C@H]2CC)c(C(=O)NC2CNC2)n1 [Compound 1-211, N-(azetidin-3-yl)-5-[(2R)-4-[4-chloro-2-(trifluoromethyl)benzoyl]-2-ethylpiperazin-1-yl]-2′-ethoxy-[2,3′-bipyridine]-6-carboxamide]
CCOc1ncccc1-c1ccc(N2CCN(C(=O)C3(C(F)(F)F)CCCC3)C[C@H]2CC)c(C(=O)N[C@@H]2CCN(C)C2)n1 [Compound 1-255, 2′-ethoxy-5-[(2R)-2-ethyl-4-[1-(trifluoromethyl)cyclopentanecarbonyl]piperazin-1-yl]-N-[(3R)-1-methylpyrrolidin-3-yl]-[2,3′-bipyridine]-6-carboxamide]
CCOc1ncccc1-c1ccc(N2CCN(C(=O)c3ccc(F)cc3C(F)(F)F)C[C@H]2CC)c(C(=O)NCCN(C)C)c1F [Compound 1-174, N-[2-(dimethylamino)ethyl]-3-(2-ethoxypyridin-3-yl)-6-[(2R)-2-ethyl-4-[4-fluoro-2-(trifluoromethyl)benzoyl]piperazin-1-yl]-2-fluorobenzamide]
CCOc1ncccc1-c1ccc(N2CCN(C(=O)c3ccc(Cl)cc3C(F)(F)F)C[C@H]2CC)c(C(=O)N[C@@H]2CNC[C@H]2F)n1 [Compound 1-276, 5-[(2R)-4-[4-chloro-2-(trifluoromethyl)benzoyl]-2-ethylpiperazin-1-yl]-2′-ethoxy-N-[(3R,4R)-4-fluoropyrrolidin-3-yl]-[2,3′-bipyridine]-6-carboxamide]
CCOc1ncccc1-c1ccc(N2CCN(C(=O)c3ccc(C(F)(F)F)s3)C[C@H]2CC)c(C(=O)N[C@@H]2CCNC2)n1 [Compound 1-368, 2′-ethoxy-5-[(2R)-2-ethyl-4-[5-(trifluoromethyl)thiophene-2-carbonyl]piperazin-1-yl]-N-[(3R)-pyrrolidin-3-yl]-[2,3′-bipyridine]-6-carboxamide]
CCOc1ccccc1-c1ccc(N2CCN(C(=O)c3ccc(Cl)cc3C(F)(F)F)C[C@H]2CC)c(C(=O)NCCN(C)C)n1 [Compound 1-149, 3-[(2R)-4-[4-chloro-2-(trifluoromethyl)benzoyl]-2-ethylpiperazin-1-yl]-N-[2-(dimethylamino)ethyl]-6-(2-ethoxyphenyl)pyridine-2-carboxamide]
CCOc1ncccc1-c1ccc(N2CCN(C(=O)c3ccc(Cl)cc3C(F)(F)F)C[C@H]2CC)c(CN)n1 [Compound 2-13, 1-{5-[(2R)-4-[4-chloro-2-(trifluoromethyl)benzoyl]-2-ethylpiperazin-1-yl]-2′-ethoxy-[2,3′-bipyridin]-6-yl}methanamine]
CCOc1ccccc1-c1ccc(N2CCN(C(=O)N3CCc4cccc(C#N)c43)C[C@H]2CC)c(C(=O)N[C@@H]2CCN(C)C2)n1 [Compound 1-393, 3-[(2R)-4-(7-cyano-2,3-dihydro-1H-indole-1-carbonyl)-2-ethylpiperazin-1-yl]-6-(2-ethoxyphenyl)-N-[(3R)-1-methylpyrrolidin-3-yl]pyridine-2-carboxamide]
CCOc1ncccc1-c1ccc(N2CCN(C(=O)c3ccc(OC)nc3C(F)(F)F)C[C@H]2CC)c(C(=O)NC[C@@H]2CCN2C)n1 [Compound 1-245, 2′-ethoxy-5-[(2R)-2-ethyl-4-[6-methoxy-2-(trifluoromethyl)pyridine-3-carbonyl]piperazin-1-yl]-N-{[(2S)-1-methylazetidin-2-yl]methyl}-[2,3′-bipyridine]-6-carboxamide]
CCOc1ncccc1-c1ccc(N2CCN(C(=O)c3ccc(Cl)cc3C(F)(F)F)C[C@H]2CC)c(C(=O)NC2CN(C)C2)n1 [Compound 1-212, 5-[(2R)-4-[4-chloro-2-(trifluoromethyl)benzoyl]-2-ethylpiperazin-1-yl]-2′-ethoxy-N-(1-methylazetidin-3-yl)-[2,3′-bipyridine]-6-carboxamide]
CCOc1ncccc1-c1ccc(N2CCN(C(=O)c3ccc(OC)nc3C(F)(F)F)C[C@H]2CC)c(C(=O)N[C@@H]2CCN(C)C2)n1 [Compound 1-239, 2′-ethoxy-5-[(2R)-2-ethyl-4-[6-methoxy-2-(trifluoromethyl)pyridine-3-carbonyl]piperazin-1-yl]-N-[(3R)-1-methylpyrrolidin-3-yl]-[2,3′-bipyridine]-6-carboxamide]
